This note sets out measurements from EP0934259B1, “BETA-SULFONAMIDO HYDROXAMIC ACIDS AS MATRIX METALLOPROTEINASE AND TACE INHIBITORS” (American Cyanamid Company, priority 1996, dated 1998).

By IC50 is commonly meant the point on the concentration scale where inhibition reaches its midpoint. A low value points to greater potency.

Holding throughout (assay type): biochemical
Test [1] has as its target T1, MMP-1 (Homo sapiens, UniProt P03956).
T1 sequence (P03956 100-469): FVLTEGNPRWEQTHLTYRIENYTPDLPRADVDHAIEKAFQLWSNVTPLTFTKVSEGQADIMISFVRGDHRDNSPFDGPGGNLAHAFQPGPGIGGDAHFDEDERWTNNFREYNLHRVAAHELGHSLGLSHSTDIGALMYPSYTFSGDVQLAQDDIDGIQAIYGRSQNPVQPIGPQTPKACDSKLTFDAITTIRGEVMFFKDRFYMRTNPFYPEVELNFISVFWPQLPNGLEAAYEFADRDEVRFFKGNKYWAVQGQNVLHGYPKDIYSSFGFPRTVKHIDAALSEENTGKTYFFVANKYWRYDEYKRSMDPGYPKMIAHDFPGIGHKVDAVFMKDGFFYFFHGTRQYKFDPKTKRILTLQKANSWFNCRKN
In words: MMP-1 inhibition (thiopeptide or fluorescent peptide substrate assay). The protocol:
(§1) These assays are based on the cleavage of a thiopeptide substrates such as Ac-Pro-Leu-Gly(2-mercapto-4-methyl-pentanoyl)-Leu-Gly-OEt by the matrix metalloproteinases MMP-1, MMP-13 (collagenases) or MMP-9 (gelatinase), which results in the release of a substrate product that reacts colorimetrically with DTNB (5,5'-dithiobis(2-nitro-benzoic acid)). The enzyme activity is measured by the rate of the color increase. The thiopeptide substrate is made up fresh as a 20 mM stock in 100% DMSO and the DTNB is dissolved in 100% DMSO as a 100 mM stock and stored in the dark at room temperature. […] The assay buffer, enzyme, vehicle or inhibitor, and DTNB/substrate are added in this order to a 96 well plate (total reaction volume of 200 µl) and the increase in color is monitored spectrophotometrically for 5 minutes at 405 nm on a plate reader and the increase in color over time is plotted as a linear line.
(§2) Alternatively, a fluorescent peptide substrate is used. […] Upon cleavage of the substrate by an MMP, the fluorescence that is generated is quantitated on the fluorescence plate reader. […] The reaction is read (excitation 340 nm, emission 444 nm) for 10 min, and the increase in fluorescence over time is plotted as a linear line.
(§3) For either the thiopeptide or fluorescent peptide assays, the slope of the line is calculated and represents the reaction rate. […]

Test [2] has as its target T2, TACE (Homo sapiens, UniProt P78536).
T2 construct: purchased Immunex
In words: TACE inhibition (fluorescent peptidyl substrate assay). The method, then:
Using 96-well black microtiter plates, each well receives a solution composed of 10 µL TACE (Immunex, final concentration 1µg/mL), 70µL Tris buffer, pH 7.4 containing 10% glycerol (final concentration 10 mM), and 10 µL of test compound solution in DMSO (final concentration 1µM, DMSO concentration <1%) and incubated for 10 minutes at room temperature. The reaction is initiated by addition of a fluorescent peptidyl substrate (final concentration 100 µM) to each well and then shaking on a shaker for 5 sec.
The reaction is read (excitation 340 nm, emission 420 nm) for 10 min. and the increase in fluorescence over time is plotted as a linear line. The slope of the line is calculated and represents the reaction rate.
The linearity of the reaction rate is confirmed (r^2 >0.85). The mean (x±sem) of the control rate is calculated and compared for statistical significance (p<0.05) with drug-treated rates using Dunnett's multiple comparison test. Dose-response relationships can be generate using multiple doses of drug and IC50 values with 95% CI are estimated using linear regression.

The target of test [3] is MMP-9 (Homo sapiens, UniProt P14780). In words: MMP-9 inhibition (thiopeptide or fluorescent peptide substrate assay). The method, then: as §1, §2, §3
Chain of MMP-9 (P14780 94-707): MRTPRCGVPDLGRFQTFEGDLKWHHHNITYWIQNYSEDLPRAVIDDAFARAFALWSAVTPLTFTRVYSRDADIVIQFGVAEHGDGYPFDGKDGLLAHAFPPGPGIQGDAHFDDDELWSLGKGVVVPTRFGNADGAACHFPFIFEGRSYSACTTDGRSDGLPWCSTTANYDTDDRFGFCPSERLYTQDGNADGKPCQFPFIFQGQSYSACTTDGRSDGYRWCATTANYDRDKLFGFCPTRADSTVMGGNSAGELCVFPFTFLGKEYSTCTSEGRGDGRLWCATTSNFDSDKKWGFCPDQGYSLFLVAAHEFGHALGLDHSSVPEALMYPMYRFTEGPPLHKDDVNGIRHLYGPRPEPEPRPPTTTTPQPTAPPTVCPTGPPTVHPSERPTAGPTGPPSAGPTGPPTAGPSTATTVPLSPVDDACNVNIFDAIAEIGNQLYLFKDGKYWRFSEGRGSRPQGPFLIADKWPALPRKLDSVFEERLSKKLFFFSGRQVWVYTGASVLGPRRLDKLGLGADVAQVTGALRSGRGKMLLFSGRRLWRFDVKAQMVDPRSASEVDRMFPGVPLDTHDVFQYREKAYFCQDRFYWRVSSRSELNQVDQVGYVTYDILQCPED

T2 sequence (P78536 215-824): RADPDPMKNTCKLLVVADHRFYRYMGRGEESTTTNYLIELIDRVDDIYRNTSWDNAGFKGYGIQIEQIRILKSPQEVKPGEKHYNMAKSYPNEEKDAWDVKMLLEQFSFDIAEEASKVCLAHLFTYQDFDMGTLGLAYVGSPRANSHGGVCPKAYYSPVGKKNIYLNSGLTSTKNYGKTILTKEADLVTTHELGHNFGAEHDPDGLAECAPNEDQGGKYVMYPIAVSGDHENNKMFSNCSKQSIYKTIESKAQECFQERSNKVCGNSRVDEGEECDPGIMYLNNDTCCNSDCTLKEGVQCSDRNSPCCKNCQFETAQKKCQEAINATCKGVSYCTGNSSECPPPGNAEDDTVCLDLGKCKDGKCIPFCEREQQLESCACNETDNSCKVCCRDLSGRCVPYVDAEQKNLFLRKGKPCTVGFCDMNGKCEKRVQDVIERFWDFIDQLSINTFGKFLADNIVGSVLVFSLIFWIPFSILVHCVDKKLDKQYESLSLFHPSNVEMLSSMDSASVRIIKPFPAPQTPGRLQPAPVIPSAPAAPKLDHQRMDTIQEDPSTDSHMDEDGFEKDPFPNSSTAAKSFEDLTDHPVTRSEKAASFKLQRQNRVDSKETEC

`COc1ccc(S(=O)(=O)N(Cc2ccccc2)[C@@H]2CCCC[C@H]2C(=O)NO)cc1` (relative stereo) [Example 9, (trans)-2-[Benzyl-(4-methoxy-benzenesulfonyl)-amino]-cyclohexanecarboxylic acid hydroxyamide]: the half-inhibitory concentration (IC50) in test [1] was 176 nM; in test [2], 1610 nM; in test [3], 181 nM.
Consider `COc1ccc(S(=O)(=O)N(Cc2ccccc2)[C@H]2CCCC[C@H]2C(=O)NO)cc1` (relative stereo) [Example 10, (cis)-2-[Benzyl-(4-methoxy-benzenesulfonyl)-amino]-cyclohexanecarboxylic acid hydroxyamide], for which the IC50 in test [1] amounted to 616 nM; in test [3] it was 275 nM. For the same compound, the inhibition at 1 µM in test [2] (read-out: TACE % inhibition at 1 µM concentration) is 24%.
